In publication PMC8010095, “Discovery of novel antituberculosis agents among 3-phenyl-5-(1-phenyl-1H-[1,2,3]triazol-4-yl)-[1,2,4]oxadiazole derivatives targeting aminoacyl-tRNA synthetases” (Scientific Reports, 2021):
In brackets after ≈: the same amount, converted by molar mass. Entries after “also recorded” stand apart in the source; their conditions may differ. Like-named read-outs stand apart in the source and are kept apart here.

Key:
[1] = tested on: Staphylococcus aureus MetRS; set-up: method as in PMID 19015366; settings: S. aureus MetRS versus human mitochondrial MetRS; cited from earlier work
[2] = tested on: Mycobacterium avium (ATCC 700,891 MAC 101); test: microbe, parasite or virus in culture; assay type: cell-based; settings: > 80% reduction in growth, screened at 20, 2 and 0.2 mg/L, 7H9 complete medium; for MIC: Mycobacterium avium, ATCC700, read-out: Growth inhibition cutoff, M. avium 700,891 (MAC 101)
[3] = tested on: Mycobacterium abscessus (ATCC 19,977); test: microbe, parasite or virus in culture; assay type: cell-based; settings: > 80% reduction in growth, screened at 20, 2 and 0.2 mg/L, 7H9 complete medium; for MIC: Mycobacteroides abscessus, ATCC19, read-out: Growth inhibition cutoff, M. abscessus 19,977
M. tuberculosis H37Rv [4] = test: microbe, parasite or virus in culture; assay type: cell-based; settings: > 80% reduction in growth, screened at 20, 2 and 0.2 mg/L, 7H9 complete medium; for MIC: Mycobacterium tuberculosis, H37RV, read-out: Growth inhibition cutoff, H37Rv
[5] = target: T1, M. tuberculosis leucyl-tRNA synthetase (LeuRS) (Mycobacterium tuberculosis, UniProt P9WFV1); set-up: method as in PMID 31691918; settings: from the previous article ref 22; cited from earlier work
T1 construct: made in house; host or cells: Escherichia coli

[6] = target: T2, M. tuberculosis methionyl-tRNA synthetase (MetRS) (Mycobacterium tuberculosis, UniProt P9WFU5); set-up: method as in PMID 31691918; settings: from the previous article ref 22; cited from earlier work
T2 construct: made in house; host or cells: Escherichia coli

M. tuberculosis = tested on: M. tuberculosis; set-up: method as in PMID 31691918; settings: earlier identified hit; cited from earlier work
[7] = target: T1, M. tuberculosis leucyl-tRNA synthetase (LeuRS); test: biochemical; assay type: biochemical
[8] = target: T2, M. tuberculosis methionyl-tRNA synthetase (MetRS); test: biochemical; assay type: biochemical; settings: for IC50: mean ± s.d. (n = 3)
[9] = MTT cytotoxicity assay, HEK293; assay type: cell-based, human; settings: human, hek293 cells, read-out: CC50, concentration to cause 50% cytotoxicity
Experimental: (§1) We have tested compound 27 for cytotoxicity toward human cell lines HEK293 (human embryonic kidney 293) and HepG2 (human hepatocellular carcinoma cell line) using standard MTT assay.
(§2) Compound cytotoxicity was determined by standard MTT assay[37] using human embryonic kidney 293 (HEK293) and human hepatocellular carcinoma (HepG2) cell lines according to the method described previously. HEK 293 cell line was obtained from the Russian Cell Culture Collection (Institute of Cytology of the Russian Academy of Science, St.Petersburg, Russia) and HepG2 – from the Bank of Cell Lines from human and animal tissue (R. E. Kavetsky Institute of Experimental Pathology, Oncology and Radiobiology, NAS of Ukraine, Kyiv, Ukraine).

[10] = tested on: HEK293 (human embryonic kidney 293); test: MTT cytotoxicity assay, HEK293; assay type: cell-based; settings: 3.125 µM to 50 µM
Experimental: as §1, §2

M. tuberculosis H37Rv [11] = test: microbe, parasite or virus in culture; assay type: cell-based, Mycobacterium tuberculosis; settings: read-out: 2-week MIC
[12] = tested on: HepG2 (human hepatocellular carcinoma cell line); test: MTT cytotoxicity assay, HepG2; assay type: cell-based; settings: 3.125 µM to 50 µM
Experimental: as §1, §2

[13] = MTT cytotoxicity assay, HepG2; assay type: cell-based, human; settings: human, hepg2 cells, read-out: CC50, concentration to cause 50% cytotoxicity
Experimental: as §1, §2

human cytoplasmic LeuRS = tested on: human cytoplasmic LeuRS; set-up: method as in PMID 28953378; settings: cited from earlier work
mycobacterial LeuRS = tested on: mycobacterial LeuRS; set-up: method as in PMID 28953378; settings: cited from earlier work
tuberculosis = tested on: tuberculosis; set-up: method as in PMID 28953378; settings: cited from earlier work
[14] = tested on: human mitochondrial LeuRS; set-up: method as in PMID 28953378; settings: cited from earlier work
[15] = recombinant enzyme, mean ± spread (n in brackets), negative = activation

T2 sequence (P9WFU5 whole entry): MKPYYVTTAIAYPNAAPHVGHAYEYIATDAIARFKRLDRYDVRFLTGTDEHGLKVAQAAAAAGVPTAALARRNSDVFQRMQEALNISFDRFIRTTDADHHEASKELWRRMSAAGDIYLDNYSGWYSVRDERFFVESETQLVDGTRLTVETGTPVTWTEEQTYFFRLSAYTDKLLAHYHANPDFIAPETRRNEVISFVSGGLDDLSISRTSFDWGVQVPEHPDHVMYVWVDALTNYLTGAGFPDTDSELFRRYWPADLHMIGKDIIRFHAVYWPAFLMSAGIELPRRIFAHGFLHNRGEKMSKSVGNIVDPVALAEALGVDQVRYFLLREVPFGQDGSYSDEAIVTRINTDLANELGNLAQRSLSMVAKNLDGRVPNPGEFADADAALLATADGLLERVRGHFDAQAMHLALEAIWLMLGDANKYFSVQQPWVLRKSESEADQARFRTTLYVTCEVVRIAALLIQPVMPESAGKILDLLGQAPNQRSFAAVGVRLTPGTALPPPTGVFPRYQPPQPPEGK
T1 sequence (P9WFV1 whole entry): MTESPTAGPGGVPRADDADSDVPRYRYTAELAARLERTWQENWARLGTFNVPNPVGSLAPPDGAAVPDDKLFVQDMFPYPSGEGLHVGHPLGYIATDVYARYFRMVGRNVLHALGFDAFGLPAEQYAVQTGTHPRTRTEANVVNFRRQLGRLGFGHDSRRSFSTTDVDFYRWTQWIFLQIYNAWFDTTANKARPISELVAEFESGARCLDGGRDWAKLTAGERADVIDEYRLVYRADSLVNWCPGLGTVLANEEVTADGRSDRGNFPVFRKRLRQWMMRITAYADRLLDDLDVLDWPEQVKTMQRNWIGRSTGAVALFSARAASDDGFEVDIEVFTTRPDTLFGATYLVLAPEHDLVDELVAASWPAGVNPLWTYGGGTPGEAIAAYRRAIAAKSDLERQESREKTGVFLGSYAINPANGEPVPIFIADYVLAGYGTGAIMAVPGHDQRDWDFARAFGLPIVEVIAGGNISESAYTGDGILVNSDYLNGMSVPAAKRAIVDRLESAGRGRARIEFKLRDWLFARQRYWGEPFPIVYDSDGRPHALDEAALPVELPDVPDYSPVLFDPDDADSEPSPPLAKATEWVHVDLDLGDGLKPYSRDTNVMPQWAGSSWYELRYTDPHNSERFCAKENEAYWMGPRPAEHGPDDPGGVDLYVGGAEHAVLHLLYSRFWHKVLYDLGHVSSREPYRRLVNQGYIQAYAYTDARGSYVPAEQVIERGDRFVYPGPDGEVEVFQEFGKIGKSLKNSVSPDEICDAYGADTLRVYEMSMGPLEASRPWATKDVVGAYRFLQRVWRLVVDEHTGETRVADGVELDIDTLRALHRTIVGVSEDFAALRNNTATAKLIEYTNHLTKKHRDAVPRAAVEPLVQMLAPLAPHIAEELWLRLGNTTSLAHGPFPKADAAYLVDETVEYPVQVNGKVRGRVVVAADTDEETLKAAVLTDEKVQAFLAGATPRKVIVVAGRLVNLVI

Structure (SMILES) | Growth inhibition cutoff, M. avium 700,891 (MAC 101) [2] [mg/L] | Growth inhibition cutoff, M. abscessus 19,977 [3] [mg/L] | Growth inhibition cutoff, H37Rv (M. tuberculosis H37Rv [4]) [mg/L] | LeuRS inhibition activity, % [7, 15] | MetRS inhibition activity, % [8, 15] | MIC [2] [µg/mL] | MIC [3] [µg/mL] | MIC (M. tuberculosis H37Rv [4]) [µg/mL] | LeuRS inhibition activity, % [7] | MetRS inhibition activity, % [8] | IC50 [8] [µM] | further results
C=C(F)c1sc(CNCCCNc2cc(O)c3ccccc3n2)c(C)c1Br [REP8839] |  |  |  |  |  |  |  |  |  |  |  | affinity for the bacterial enzyme relative to human mitochondrial MetRS [1]: 1000 fold
COc1ccc(-n2nnc(-c3nc(-c4ccc(F)cc4)no3)c2N)cc1Cl [Compound 17, 3-(3-chloro-4-methoxy-phenyl)-5-[3-(4-fluoro-phenyl)-[1,2,4]oxadiazol-5-yl]-3H-[1,2,3]triazol-4-ylamine] | > 20 | > 20 | > 20 | 51 ± 28 (2) % | 77 ± 3 (2) % |  |  |  |  |  |  | IC50 [5]: 13 µM; IC50 [6]: 13.8 µM; antibacterial activity toward M. tuberculosis (M. tuberculosis): does not have antibacterial activity
COc1ccc(Cl)cc1-n1nnc(-c2nc(-c3ccc(F)cc3)no2)c1N [Compound 27] |  |  |  |  |  | > 20 | > 20 | > 20 | 14 ± 12 (2) % | 57 ± 11 (3) % | 148 ± 33.2 | CC50 [9]: > 50 µM; cytotoxicity / effect on cell viability [10]: did not affect cell viability; also recorded: not cytotoxic; MIC (M. tuberculosis H37Rv [11]; Mycobacterium tuberculosis, H37RV, 336 h): 25 µM (≈ 9.67 µg/mL); MIC (M. tuberculosis H37Rv [11]): > 50 µM; cytotoxicity / effect on cell viability [12]: did not affect cell viability; also recorded: not cytotoxic; CC50 [13]: > 50 µM
NC[C@H]1OB(O)c2c(OCCO)ccc(Cl)c21 [GSK656, (S)-3-(Aminomethyl)-4-chloro-7-(2-hydroxyethoxy) benzo [c][1, 2] oxaborol-1 (3 H)-ol] |  |  |  |  |  |  |  |  |  |  |  | IC50 (human cytoplasmic LeuRS): > 300 µM; IC50 (mycobacterial LeuRS): 0.2 µM; efficacy in an animal model of tuberculosis (tuberculosis): effective; IC50 [14]: > 300 µM
COc1ccc(-n2nnc(-c3nc(-c4ccc(F)cc4)no3)c2N)cc1 [Compound 13] |  |  |  |  |  | > 20 | > 20 | > 20 | 79 ± 7 (2) % | 36 ± 5 (2) % | 122 ± 26 | IC50 ([7]; mean ± s.d. (n = 3)): 263.5 ± 0.7 µM
Cc1cccc(-n2nnc(-c3nc(-c4ccc(F)cc4)no3)c2N)c1 [Compound 18] | > 20 | > 20 | > 20 | 13 ± 11 (2) % | 26 ± 20 (2) % |  |  |  |  |  |  | 
